# Source: US20240366589A1, “NHE3-BINDING COMPOUNDS AND METHODS FOR INHIBITING PHOSPHATE TRANSPORT” (Ardelyx, Inc., priority 2013, published 2024)
# Entries after “also recorded” stand apart in the source; their conditions may differ.
# What was measured:
# [1] = tested on: adenine-induced uremic rat model; test: Adenine-induced uremic rat model; type: in vivo
# Procedure: The effects of Cpd 002 (from Table E4, as the dihydrochloride salt) were tested in an adenine-induced uremic rat model. Rats were fed a diet including 0.75% adenine and 1.2% phosphorus during the nephritis induction phase. The basal diet during the treatment phase was normal chow including 0.3% adenine and 0.6% phosphorus for 2 weeks. The rats were pair-fed the first 5 days (groups 1 and 2 to group 3, 4 days apart), and fed ad libitum afterwards. The treatment groups were as follows: vehicle, n=10; Cpd 002, 2 mg/kg/day drug-in-chow, n=10; and Cpd 002, 5 mg/kg/day drug-in-chow, n=12. Weekly measurements were taken for serum markers and kidney function. The study design is illustrated in FIG. 8A.
# [2] = tested on: absorption of sodium from the intestinal lumen; test: Inhibition of intestinal sodium absorption: urinary sodium (uNa) 16 h after single oral dose in rats; type: in vivo, rat; settings: for UNa (%): urinary Na excretion as % of vehicle
# In short: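 Urinary sodium mass over the 16 h after one oral gavage dose, measured by cation-exchange ion chromatography, reported as percent of water-vehicle group; ANOVA plus Dunnett's post hoc test. Groups of six 8-week-old Sprague-Dawley rats, housed individually in metabolic cages post-dose, fed and watered freely.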
# [3] = tested on: uremic rat model of CKD featuring vascular calcification; test: Rat model of uremia-associated vascular calcification (5/6 nephrectomy, calcitriol, 0.9% P diet); type: in vivo
# Description: Chronic kidney disease (CKD) has multiple pathogenic mechanisms, and advanced CKD is often characterized by disordered mineral metabolism (e.g., hyperphosphatemia, hypercalcemia) and vascular calcification. Studies were thus performed to test the effectiveness of the dihydrochloride salt of Cpd 002 (from Table E4, as the dihydrochloride salt) in a uremic rat model of CKD featuring vascular calcification. This model is characterized by renal insufficiency and regular active Vitamin D3 administration to promote hyperphosphatemia and vascular calcification (see Lopez et al., J. Am. Soc. Nephrol. 17:795-804, 2006). The study utilized Spraque-Dawley rats treated as follows: 5/6th nephrectomy by excision; regular calcitriol administration (active vitamin D3) 80 ng/kg i.p. 3/week; and fed a purified 0.9% P diet (inorganic phosphorus).
# Rats were stratified into two experimental groups by serum creatinine levels of 0.8 to 1.5 mg/dl and body weight, fed drug-in-chow with powdered vehicle diet or the same diet with Cpd 002 (0.065 mg/g chow) mixed-in, and monitored for weekly body weight and selected serum parameters, daily clinical observations, and endpoint calcification. The study design is illustrated in FIG. 2.
# Selected experimental groups were fed vehicle (n=12) or Cpd 002 (n=12) at enrollment (day 0).
# [4] = tested on: phosphorus and calcium levels in the urine of rats; test: Urinary excretion of phosphate and calcium in rats (16 h overnight urine); type: in vivo, rat
# [5] = tested on: dietary salt-induced, partial renal ablation model of CKD; test: Dietary salt-induced, partial renal ablation model of CKD in nephrectomized rats; type: in vivo, rat
# Procedure: The effects of Cpd 002 (from Table E4, as the dihydrochloride salt) were tested in a dietary salt-induced, partial renal ablation model of CKD. The study design is illustrated in FIG. 11A (12 rats per group).
# [6] = tested on: intestinal phosphate uptake; test: Pharmacodynamic study with 33P oral challenge in normal function rats; type: in vivo, rat; settings: 8 mM Pi with 33P, 10 mg/kg, dihydrochloride salts, FIG. 1A
# Procedure: The compounds identified as Cpds 003, 004, and 005 (from Table E4, as their dihydrochloride salts) were tested for the ability to block intestinal phosphate uptake in rats. Rats were orally challenged with dosing solutions composed of 5 ml/kg (˜1.3 ml) of 8 mM Pi with ^33P and +/−10 mg/kg of test compound. Also included were dosing solutions further composed of either (i) 75 mM glucose+4 mM Ca or (ii) 4 mM Ca.
# [7] = early time points, 2 and 5 mg/kg/day drug-in-chow
# [8] = week three, highest dose 5 mg/kg/day
# [9] = endpoint day 27, 0.065 mg/g chow, vs vehicle
# [10] = endpoint, 0.065 mg/g chow, vs vehicle
# [11] = organ weight/body weight, 0.065 mg/g chow, vs vehicle
# [12] = relative to vehicle-only control, 0.1-3.0 mg/kg, 16 h urine
structure (smiles),measurement,setting,value
CN1Cc2c(Cl)cc(Cl)cc2[C@H](c2cccc(S(=O)(=O)NCCOCCOCCNC(=O)NCCCCNC(=O)NCCOCCOCCNS(=O)(=O)c3cccc([C@@H]4CN(C)Cc5c(Cl)cc(Cl)cc54)c3)c2)C1 [Cpd 002],serum creatinine,[1]; [7],reduced
same,serum phosphorus,[1]; [7],reduced
same,heart remodeling (organ weight),[1]; week three,trend towards lesser heart and kidney remodeling
same,kidney remodeling (organ weight),[1]; week three,trend towards lesser heart and kidney remodeling
same,heart calcification (tissue mineralization),[1]; [8],trend towards reduced heart and kidney calcification
same,kidney calcification (tissue mineralization),[1]; [8],trend towards reduced heart and kidney calcification
same,UNa (%),[2]; single oral dose 1 mg/kg,11 @ 1 mg/kg %
same,endpoint plasma aldosterone,"[3]; 0.065 mg/g chow, vs vehicle",aldosterone increase
same,plasma creatinine,"[3]; endpoint day 27, 0.065 mg/g chow, dihydrochloride salt, vs vehicle",reduced plasma creatinine
same,plasma FGF-23,[3]; [9],reduced plasma FGF-23
same,plasma phosphorus,[3]; [9],reduced plasma phosphorus; also recorded: anti-hyperphosphatemic effects
same,calcium and phosphorus in the stomach (soft tissue calcification),[3]; [10],reduced calcium and phosphorus in the stomach
same,vascular calcification as aortic mineral content,[3]; [10],reduced vascular calcification; also recorded: reduce associated vascular calcification
same,endpoint heart weight (heart hypertrophy),[3]; [11],lessened; also recorded: reduce both heart hypertrophy and renal hypertrophy
same,endpoint kidney remnant weight (renal hypertrophy),[3]; [11],lessened; also recorded: reduce both heart hypertrophy and renal hypertrophy
same,moribundity,[3]; treatment group vs vehicle,decreased moribundity
same,mortality outcome,[3]; treatment group vs vehicle,trend toward improved mortality outcome
same,urine phosphorus mass,"[4]; increasing dosages, relative to 48 mg/kg Renvela",significantly reduced
same,urine calcium mass,[4]; [12],reduced
same,urine phosphorus mass,[4]; [12],reduced
same,phosphorus urinary excretion,[5]; FIG. 11B,significantly reduced
same,blood pressure,[5]; dihydrochloride salt,improved
same,albuminuria,"[5]; rat, in vivo",improved
same,fluid overload,"[5]; rat, in vivo",improved
same,heart hypertrophy,"[5]; rat, in vivo",improved
same,kidney hypertrophy,"[5]; rat, in vivo",improved
CN1Cc2c(Cl)cc(Cl)cc2[C@@H](c2cccc(S(=O)(=O)NCCOCCOCCNC(=O)NCCCCNC(=O)NCCOCCOCCNS(=O)(=O)c3cccc([C@H]4CN(C)Cc5c(Cl)cc(Cl)cc54)c3)c2)C1 [Cpd 004],effect on urinary Na (UNa),[2]; in words,no significant effect
same,UNa (%),[2]; single oral dose 10 mg/kg,68 @ 10 mg/kg %
same,Pi uptake after 33P oral challenge,[6],as potent at reducing Pi uptake as a persistent inhibitor such as Cpd 003
